Results from patent publication US7419984B2, “Pyrimidines and uses thereof” (Cell Therapeutics, Inc., priority 2002, dated 2008).

Target: T1, human LPAAT-β (Homo sapiens, UniProt O15120)
T1 construct: the full-length human LPAAT-β cDNA was amplified by PCR; poly-histidine tag (N); made in house; host or cells: Sf9 insect cells (baculovirus, pFastBac HTc); the membrane fraction was used as the enzyme
T1 sequence (O15120 24-278): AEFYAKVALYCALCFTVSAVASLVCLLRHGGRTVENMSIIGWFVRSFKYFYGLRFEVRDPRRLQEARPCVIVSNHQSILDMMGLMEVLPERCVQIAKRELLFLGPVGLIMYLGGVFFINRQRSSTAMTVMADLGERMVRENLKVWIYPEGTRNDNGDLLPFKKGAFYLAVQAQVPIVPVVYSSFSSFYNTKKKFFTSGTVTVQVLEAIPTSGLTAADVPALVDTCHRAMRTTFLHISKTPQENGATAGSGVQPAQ
Assay: LPAAT-β cell-free assay
Format: biochemical
Settings: Sf9 cell membrane overexpressing recombinant LPAAT-β
Procedure, shortened: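 Membranes from Sf9 cells expressing His/myc-tagged full-length human LPAAT-β were used in HEPES-saline pH 7.5 with 1 mg/ml BSA. Compound was added from a 200 μM DMSO stock, and reaction with 18:1-CoA and sn-1-18:1 lysoPA (1 mM stocks) ran 25 min at RT. Released CoA was detected with DTNB at 405 nm; a radiometric variant used 200 μM [14C]18:1-CoA and 200 μM lysoPA.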

Structure (SMILES)	IC50 [nM]
COc1ccc(Cl)cc1-c1cc(N)nc(Nc2ccc3cn[nH]c3c2)n1 [Example 35, 6-(5-Chloro-2-methoxyphenyl)-N*2*-(1H-indazol-6yl)-pyrimidine-2,4-diamine]	800
CCOc1ccc(Cl)cc1-c1cc(Nc2ccc(CCCO)cc2)nc(N)n1 [Example 92, 3-{4-[2-Amino-6-(5-chloro-2-ethoxy-phenyl)-pyrimidin4-ylamino]-phenyl}-propan-1-ol]	230

The remaining lines, values ahead:

IC50 [nM]	Structure (SMILES)
73	Cc1ccc(Cl)cc1-c1cc(Nc2ccc(F)cc2)nc(N)n1 [Example 97, 6-(5-Chloro-2-methyl-phenyl)-N*4*-(4-fluoro-phenyl)-pyrimidine-2,4-diamine]
180	CCOc1ccc(Cl)cc1-c1cc(Nc2ccc(CC(C)(C)O)cc2)nc(N)n1 [Example 120, 1-{4-[2-amino-6-(5-chloro-2-ethoxyphenyl)pyrimidin-4-ylamino]phenyl}-2-methyl-propan-2-ol]
49	CCOc1ccc(Cl)cc1-c1cc(Nc2ccc(C(C)=O)cc2)nc(N)n1 [Example 121, 1-{4-[2-amino-6-(5-chloro-2-ethoxyphenyl)pyrimidin-4-ylamino]phenyl}ethanone]
